Where a SMILES comes first, the peptide text is derived from it. [ ]: non-standard residue; d: D form. Aib = CC(C)(N)C(=O)O
Columns and labels:
[1] = target: T1, ECD of human GLP-1R (amino acids 24 to 145) (Homo sapiens, UniProt P43220); test: GLP-1R extracellular domain binding by surface plasmon resonance; conditions: SPR, 1:1 kinetic binding model; representative of n=3
T1 construct: GLP-1R (amino acids 24 to 145); 6His; made in house; host or cells: CHO cells
Excerpt: DNA encoding each protein was transfected into CHO cells for expression. After expression, the proteins were purified by affinity chromatography (HIS-Trap Ni, Cytiva) followed by size exclusion chromatography using a HiLoad 26/600 Superdex 75pg column (Cytiva) with PBS buffer. […] Surface plasmon resonance measurements were made using a Biacore T200 (Cytiva) and analyzed using T200 Evaluation Software Version 3.1. Receptor ectodomain proteins were covalently immobilized (∼250 resonance units) on Sensor Chip CM4 BR100534 using the Amine coupling Immobilization Wizard in the Biacore T200 Control Software Version 2.0.2. Running buffer was HBS-EP (10 mM Hepes, 150 mM NaCl, 3 mM EDTA, 0.05% P20 [pH 7.6]; Teknova). Concentration series for each sample were made by serial dilution in running buffer. The samples were injected for 150 sec at a 30-µL/min flow rate, followed by 300 sec of dissociation. The surface was regenerated between samples with 10 mM glycine (pH 1.7).
Fig. S10. Receptor extracellular domain (ECD) binding affinity of peptides. Purified GIPR (left column) and GLP-1R (right column) extracellular domains were immobilized to biosensor […]
mM). […]
(§1) and efficacy (% Top) of ligands to induce Gα s -GTPγS binding and cAMP accumulation in HEK293 cells expressing GIPR were determined. The equilibrium affinity (KD) of ligands for the immobilized ectodomain of the GIPR were quantified by surface plasmon resonance. […]
(§2) Functional potency (EC50) and efficacy (% Top) of ligands to induce Gα s-GTPγS binding and cAMP accumulation in HEK293 cells expressing GLP-1R were determined. The equilibrium affinity (KD) of ligands for the immobilized ectodomain of the GLP-1R were quantified by surface plasmon resonance. […]
(§3) recruitment to the GLP-1R were determined using the NanoBRET approach. The potency (EC50) and efficacy (% Top) for ligands to induce GLP-1R Internalization were determined using diffusion-enhanced resonance energy transfer. […]
relative efficacy for NanoBRET assays. SPR data were analyzed using T200 evaluation software (Cytiva). […] ND, not determined. […]

human GIPR [2] = target: T2, human GIPR (Homo sapiens, UniProt P48546); test: GIPR Gαs [35S]GTPγS binding, GIPR-expressing membranes; assay type: biochemical
T2 construct: expressed in transfected cells; host or cells: HEK293
T2 sequence (P48546 22-466): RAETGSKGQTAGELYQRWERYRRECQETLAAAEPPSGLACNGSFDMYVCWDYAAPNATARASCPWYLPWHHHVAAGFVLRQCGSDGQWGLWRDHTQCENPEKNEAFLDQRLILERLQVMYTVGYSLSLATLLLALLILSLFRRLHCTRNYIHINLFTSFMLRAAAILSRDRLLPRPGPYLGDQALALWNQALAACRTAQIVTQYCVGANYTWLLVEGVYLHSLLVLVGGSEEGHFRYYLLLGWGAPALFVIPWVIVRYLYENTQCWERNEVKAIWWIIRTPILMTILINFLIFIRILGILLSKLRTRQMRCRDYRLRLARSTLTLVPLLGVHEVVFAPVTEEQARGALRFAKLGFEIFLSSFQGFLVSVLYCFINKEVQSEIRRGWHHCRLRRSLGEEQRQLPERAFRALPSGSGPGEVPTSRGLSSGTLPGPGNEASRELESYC
Method: (§4) Fig. 4. […] (B) Ligand-induced GTPγS binding of Gαs was performed using the GIPR-expressing membranes. […] (C) Agonist-stimulated cAMP production was measured in human GIPR expressing HEK293 cells. […] (E) Ligand-induced GTPγS binding of Gαs was performed using the GLP-1R-expressing membranes. […] (F) Agonist-stimulated cAMP production was measured in human GLP-1R-expressing HEK293 cells. […] Data presented are representative of n ≥ 3 independent experiments. Summarized data are shown in SI Appendix, Table 2. log M; log Molar.
(§5) We note that the albumin-binding propensity of fatty acid-modified peptides can confound a pharmacological comparison of molecules, given the common use of albumin and serum as nonspecific blocking agents in biological assays. Therefore, to obviate this, entirely albumin-free assays supplemented with bovine casein or bacitracin were used to prevent nonspecific binding ([10]).
(§6) Functional potency (EC50)
(§7) and efficacy (% Top) of ligands to induce Gα s -GTPγS binding and cAMP accumulation in HEK293 cells expressing GIPR were determined. The equilibrium affinity (KD) of
(§8) ligands for the immobilized ectodomain of the GIPR were quantified by surface plasmon resonance. […]
(§9) SPR data were analyzed using T200 evaluation software (Cytiva). All data are presented as geometric means with SEM and n values
(§10) according to established practices. ND, not determined. NA, not applicable.

human GIPR [3] = target: T2, human GIPR; test: GIPR low density cAMP accumulation in HEK293 cells; assay type: cell-based
Method: as §4, §5, §6, §7, §8, §9, §10

GLP-1R [4] = target: T3, GLP-1R (Homo sapiens, UniProt P43220); test: Ligand-induced GLP-1R internalization, SNAP-GLP-1R HEK293 cells; assay type: cell-based; conditions: for GLP-1R Internalization Top: efficacy (% Top), percent internalization compared to maximal GLP-1, (SEM)
Target sequence in this assay (P43220 24-463): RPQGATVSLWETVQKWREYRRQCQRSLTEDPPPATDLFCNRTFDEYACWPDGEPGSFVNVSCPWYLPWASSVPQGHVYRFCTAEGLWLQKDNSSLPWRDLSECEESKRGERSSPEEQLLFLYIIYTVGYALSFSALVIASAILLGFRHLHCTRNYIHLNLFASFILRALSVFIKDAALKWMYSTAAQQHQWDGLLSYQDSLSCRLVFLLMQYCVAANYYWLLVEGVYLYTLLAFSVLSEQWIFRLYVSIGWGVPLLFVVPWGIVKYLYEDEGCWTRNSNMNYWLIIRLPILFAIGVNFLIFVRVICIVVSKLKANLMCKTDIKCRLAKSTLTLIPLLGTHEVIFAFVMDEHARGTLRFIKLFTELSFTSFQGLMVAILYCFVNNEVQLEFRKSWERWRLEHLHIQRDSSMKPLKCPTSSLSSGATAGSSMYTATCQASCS

GLP-1R [5] = target: T3, GLP-1R; test: β-arrestin 1 recruitment to the GLP-1R, NanoBRET; assay type: cell-based; parameters: expressed in transfected cells; conditions: efficacy (% Top), relative efficacy to GLP-1; (SEM)
Method: Functional potency (EC50) […]
as §1, with “resonance. Middle Panel: The affinity (Ki) of ligands for the GLP-1R was” for “resonance.”
as §2, §3
Target sequence in this assay (P43220 24-463): as above
Target sequence in this assay (P49407 whole entry partner): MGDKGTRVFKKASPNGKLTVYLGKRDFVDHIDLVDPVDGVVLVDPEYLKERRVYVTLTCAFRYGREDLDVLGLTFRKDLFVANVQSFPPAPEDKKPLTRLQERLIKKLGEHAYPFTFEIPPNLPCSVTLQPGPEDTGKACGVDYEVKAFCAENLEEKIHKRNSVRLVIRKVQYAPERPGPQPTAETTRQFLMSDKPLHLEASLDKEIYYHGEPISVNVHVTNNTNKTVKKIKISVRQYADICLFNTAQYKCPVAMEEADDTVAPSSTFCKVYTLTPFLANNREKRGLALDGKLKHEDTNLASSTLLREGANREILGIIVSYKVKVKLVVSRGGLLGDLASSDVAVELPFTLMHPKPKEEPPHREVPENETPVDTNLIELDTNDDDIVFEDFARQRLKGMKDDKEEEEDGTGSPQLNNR
relative efficacy for NanoBRET assays. SPR data were analyzed using T200 evaluation software (Cytiva). All data are presented as geometric means with SEM and n values according to established practices. ND, not determined. NA, not applicable.

GLP-1R [6] = target: T3, GLP-1R; test: GLP-1R Gαs [35S]GTPγS binding, GLP-1R-expressing membranes; assay type: biochemical; parameters: expressed in transfected cells; host or cells: HEK293; conditions: for GLP-1R GTPγS Recruitment Top: efficacy (% Top), normalized to GLP-1(7-36), (SEM)
Method: as §4
as §5, with “([10]). […]” for “([10]).”
(§11) Middle Panel: The affinity (Ki) of ligands for the GLP-1R was […]
as §2
(§12) SPR data were analyzed using T200 evaluation software (Cytiva). All data are presented as geometric means with SEM and n values according to established practices. ND, not determined. NA, not applicable.
Target sequence in this assay (P43220 24-463): as the sequence (P43220 24-463) above

GLP-1R [7] = target: T3, GLP-1R; test: GLP-1R low density cAMP accumulation in HEK293 cells; assay type: cell-based; parameters: expressed in transfected cells; host or cells: HEK293; conditions: for GLP-1R Low Density cAMP Top: efficacy (% Top), normalized to GLP-1(7-36), (SEM)
Method: as §4
as §5, with “([10]). […]” for “([10]).”
as §11, §2, §12
Target sequence in this assay (P43220 24-463): as above

GLP-1R [8] = target: T3, GLP-1R; test: GRK2 recruitment to the GLP-1R, NanoBRET; assay type: cell-based; parameters: expressed in transfected cells; host or cells: freestyle HEK cells; conditions: for GLP-1R GRK2 Recruitment Top: efficacy (% Top), relative to maximal GLP-1, (SEM)
Method: After 48 h, transfected cells were incubated in phosphate-buffered saline (PBS) containing 0.1% (wt/vol) bovine casein and varying concentrations of the ligands. […]
The potency (EC50) and efficacy (% Top) for ligands to induce GLP-1R Internalization were
determined using diffusion-enhanced resonance energy transfer.
relative efficacy for NanoBRET assays. SPR data were analyzed using T200 evaluation software (Cytiva). All data are presented as geometric means with SEM and n values
as §10
Target sequence in this assay (P43220 24-463): as above
Target sequence in this assay (P25098 whole entry partner): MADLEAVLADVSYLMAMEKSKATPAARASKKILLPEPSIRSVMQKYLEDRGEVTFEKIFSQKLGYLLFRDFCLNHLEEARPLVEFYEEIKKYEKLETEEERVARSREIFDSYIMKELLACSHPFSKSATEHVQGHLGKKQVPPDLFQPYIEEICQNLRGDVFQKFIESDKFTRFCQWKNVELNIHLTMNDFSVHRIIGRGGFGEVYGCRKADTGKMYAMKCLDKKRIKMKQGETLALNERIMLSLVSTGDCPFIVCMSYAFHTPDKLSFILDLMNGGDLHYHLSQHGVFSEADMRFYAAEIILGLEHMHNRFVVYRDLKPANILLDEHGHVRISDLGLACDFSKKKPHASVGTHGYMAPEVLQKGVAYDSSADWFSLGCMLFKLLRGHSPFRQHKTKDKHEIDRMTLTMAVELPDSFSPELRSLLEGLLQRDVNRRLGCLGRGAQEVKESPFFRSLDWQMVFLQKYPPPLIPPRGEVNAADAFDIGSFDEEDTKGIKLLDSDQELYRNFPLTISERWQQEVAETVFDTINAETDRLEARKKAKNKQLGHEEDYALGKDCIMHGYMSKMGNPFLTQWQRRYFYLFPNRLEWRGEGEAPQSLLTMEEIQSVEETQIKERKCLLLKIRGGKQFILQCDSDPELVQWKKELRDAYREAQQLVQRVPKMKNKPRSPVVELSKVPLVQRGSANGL

[9] = efficacy (% Top), normalized to GIP(1-42), (SEM)

T1 sequence (P43220 24-145): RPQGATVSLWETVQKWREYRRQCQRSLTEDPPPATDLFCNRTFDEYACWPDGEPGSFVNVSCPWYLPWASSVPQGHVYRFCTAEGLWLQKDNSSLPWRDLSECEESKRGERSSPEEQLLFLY

Compound | GLP-1R Internalization Top (GLP-1R [4]) | GLP-1R β-Arr1 Recruitment Top (GLP-1R [5]) | GLP-1R GTPγS Recruitment Top (GLP-1R [6]) | GLP-1R Low Density cAMP Top (GLP-1R [7]) | GLP-1R GRK2 Recruitment Top (GLP-1R [8]) | also measured
CC[C@H](C)[C@H](NC(=O)[C@H](CO)NC(=O)[C@H](Cc1ccc(O)cc1)NC(=O)[C@H](CC(=O)O)NC(=O)[C@H](CO)NC(=O)[C@@H](NC(=O)[C@H](Cc1ccccc1)NC(=O)[C@@H](NC(=O)CNC(=O)[C@H](CCC(=O)O)NC(=O)[C@H](C)NC(=O)[C@@H](N)Cc1ccc(O)cc1)[C@@H](C)O)[C@@H](C)CC)C(=O)N[C@@H](C)C(=O)N[C@@H](CCSC)C(=O)N[C@@H](CC(=O)O)C(=O)N[C@@H](CCCCN)C(=O)N[C@H](C(=O)N[C@@H](Cc1c[nH]cn1)C(=O)N[C@@H](CCC(N)=O)C(=O)N[C@@H](CCC(N)=O)C(=O)N[C@@H](CC(=O)O)C(=O)N[C@@H](Cc1ccccc1)C(=O)N[C@H](C(=O)N[C@@H](CC(N)=O)C(=O)N[C@@H](Cc1c[nH]c2ccccc12)C(=O)N[C@@H](CC(C)C)C(=O)N[C@@H](CC(C)C)C(=O)N[C@@H](C)C(=O)N[C@@H](CCC(N)=O)C(=O)N[C@@H](CCCCN)C(=O)NCC(=O)N[C@@H](CCCCN)C(=O)N[C@@H](CCCCN)C(=O)N[C@@H](CC(N)=O)C(=O)N[C@@H](CC(=O)O)C(=O)N[C@@H](Cc1c[nH]c2ccccc12)C(=O)N[C@@H](CCCCN)C(=O)N[C@@H](Cc1c[nH]cn1)C(=O)N[C@@H](CC(N)=O)C(=O)N[C@H](C(=O)N[C@H](C(=O)N[C@@H](CCC(N)=O)C(N)=O)[C@@H](C)O)[C@@H](C)CC)C(C)C)[C@@H](C)CC [GIP, reference compound] |  |  |  |  |  | GLP-1R ECD kinetic KD [1]: No kinetic fit possible
CC[C@H](C)[C@H](NC(=O)[C@H](CC(C)C)NC(=O)[C@H](Cc1c[nH]c2ccccc12)NC(=O)[C@H](CCC(N)=O)NC(=O)[C@@H](NC(=O)[C@H](Cc1ccccc1)NC(=O)[C@H](C)NC(=O)[C@H](CCCCN)NC(=O)[C@H](CCC(N)=O)NC(=O)[C@H](C)NC(=O)[C@@H](NC(=O)[C@H](CCCCN)NC(=O)[C@H](CC(=O)O)NC(=O)[C@H](CC(C)C)NC(=O)C(C)(C)NC(=O)[C@@H](NC(=O)[C@H](CO)NC(=O)[C@H](Cc1ccc(O)cc1)NC(=O)[C@H](CC(=O)O)NC(=O)[C@H](CO)NC(=O)[C@@H](NC(=O)[C@H](Cc1ccccc1)NC(=O)[C@@H](NC(=O)CNC(=O)[C@H](CCC(=O)O)NC(=O)C(C)(C)NC(=O)[C@@H](N)Cc1c[nH]cn1)[C@@H](C)O)[C@@H](C)O)[C@@H](C)CC)[C@@H](C)CC)C(C)C)C(=O)N[C@@H](C)C(=O)NCC(=O)NCC(=O)N1CCC[C@H]1C(=O)N[C@@H](CO)C(=O)N[C@@H](CO)C(=O)NCC(=O)N[C@@H](C)C(=O)N1CCC[C@H]1C(=O)N1CCC[C@H]1C(=O)N1CCC[C@H]1C(=O)N[C@@H](CO)C(N)=O [Tzp ∆C20,Y1H] (H-H[Aib]EGTFTSDYSI[Aib]LDKIAQKAFVQWLIAGGPSSGAPPPS-NH2) | 101 (6) % | 74.6 (2.2) % | 88.9 (3.9) % | 111 (5) % | 84.2 (1.5 ) % | EC50 (human GIPR [2]; Gαs-GTPγS binding, GIPR-expressing membranes, albumin-free, geometric mean (SEM, n), read-out: GIPR GTPγS Recruitment EC50): 273 pM; GIPR GTPγS Recruitment Top (human GIPR [2]; [9]): 31.4 (6.6) %; EC50 (human GIPR [3]; cAMP accumulation, HEK293 cells expressing GIPR, albumin-free, geometric mean (SEM, n)): 682 pM; GIPR Low Density cAMP Top (human GIPR [3]; [9]): 80.9 (3.4) %; EC50 (GLP-1R [4]; diffusion-enhanced resonance energy transfer, SNAP-GLP-1R HEK293 cells, 37 °C, geometric mean (SEM, n)): 2130 pM; EC50 (GLP-1R [6]; Gαs-GTPγS binding, GLP-1R-expressing membranes, albumin-free, geometric mean (SEM, n), read-out: GLP-1R GTPγS Recruitment EC50): 239 pM; EC50 (GLP-1R [7]; cAMP accumulation, HEK293 cells expressing GLP-1R, albumin-free, geometric mean (SEM, n)): 163 pM; EC50 (GLP-1R [8]; NanoBRET, transfected freestyle HEK cells, PBS with 0.1% casein, geometric mean (SEM, n)): 3080 pM
CC[C@H](C)[C@H](NC(=O)[C@H](CC(C)C)NC(=O)[C@H](Cc1c[nH]c2ccccc12)NC(=O)[C@H](CCC(N)=O)NC(=O)[C@@H](NC(=O)[C@H](Cc1ccccc1)NC(=O)[C@H](C)NC(=O)[C@H](CCCCNC(=O)COCCOCCNC(=O)COCCOCCNC(=O)CC[C@H](NC(=O)CCCCCCCCCCCCCCCCCCC(=O)O)C(=O)O)NC(=O)[C@H](CCC(N)=O)NC(=O)[C@H](C)NC(=O)[C@@H](NC(=O)[C@H](CCCCN)NC(=O)[C@H](CC(=O)O)NC(=O)[C@H](CC(C)C)NC(=O)C(C)(C)NC(=O)[C@@H](NC(=O)[C@H](CO)NC(=O)[C@H](Cc1ccc(O)cc1)NC(=O)[C@H](CC(=O)O)NC(=O)[C@H](CO)NC(=O)[C@@H](NC(=O)[C@H](Cc1ccccc1)NC(=O)[C@@H](NC(=O)CNC(=O)[C@H](CCC(=O)O)NC(=O)C(C)(C)NC(=O)[C@@H](N)Cc1ccc(O)cc1)[C@@H](C)O)[C@@H](C)O)[C@@H](C)CC)[C@@H](C)CC)C(C)C)C(=O)N[C@@H](C)C(=O)NCC(=O)NCC(=O)N1CCC[C@H]1C(=O)N[C@@H](CO)C(=O)N[C@@H](CO)C(=O)NCC(=O)N[C@@H](C)C(=O)N1CCC[C@H]1C(=O)N1CCC[C@H]1C(=O)N1CCC[C@H]1C(=O)N[C@@H](CO)C(N)=O [Tzp, tirzepatide] | 41.6 (3.0) % | 7.55 (0.93) % | 43.9 (1.7) % | 99.5 (4.5) % | 24.7 (2.8 ) % | 
semaglutide [reference compound] |  |  |  |  |  | efficacy at inducing internalization of the GLP-1R, in words (GLP-1R [4]; SNAP-tagged receptor in HEK293 cells, representative of n≥3): equally efficacious

— article PMC9060465 (Proceedings of the National Academy of Sciences of the …, 2022)
